Data published in patent EP2296651B1, “5-HYDROXYMETHYL-OXAZOLIDIN-2-ONE DERIVATIVES FOR TREATING BACTERIAL INTESTINAL DISEASES” (Actelion Pharmaceuticals Ltd., priority 2008, dated 2009).
Converted amounts (≈) assume the structure as drawn. Read-outs that look alike come from different tables or passages of the source.

Columns and labels:
C. difficile NC 13366 = test: Broth microdilution MIC, anaerobic; assay type: cell-based, Clostridium difficile; conditions: Clostridioides difficile, NC13366, 48h at 37°C, quinolone-resistant hypervirulent strain, read-out: MIC regarding C. difficile NC 13366
C. perfringens DSM 756 = test: microbe, parasite or virus in culture; assay type: cell-based; conditions: Clostridium perfringens, DSM756, 48 h, read-out: MIC regarding C. perfringens DSM 756
C. difficile ATCC 43596 = test: Broth microdilution MIC, anaerobic; assay type: cell-based, Clostridium difficile; conditions: Clostridioides difficile, ATCC43596, 48h at 37°C, read-out: MIC regarding C. difficile ATCC 43596
E. faecium A 962 = test: Broth microdilution MIC, aerobic Gram-positive bacteria; conditions: Enterococcus faecium, A962, 48 h
E. faecalis H 7094 = test: as above; conditions: Enterococcus faecalis, H7094, 48 h
E. faecalis H 6897 = test: as above; conditions: Enterococcus faecalis, H6897, 48 h
S. aureus A-798 (MRSA) = test: as above; conditions: Staphylococcus aureus, 48 h
E. faecium H 7969 = test: as above; conditions: Enterococcus faecium, H7969, 48 h
E. faecalis ATCC 29212 = test: as above; conditions: Enterococcus faecalis, ATCC29212, 48 h
[1] = tested on: 209 diverse clinical isolates of C. difficile; test: CLSI agar dilution MIC, clinical isolates; assay type: cell-based, Clostridium difficile; conditions: Clostridioides difficile, 48 h
S. aureus ATCC 29213 = test: Broth microdilution MIC, aerobic Gram-positive bacteria; conditions: Staphylococcus aureus, ATCC29213, 48 h
[2] = tested on: S. aureus ATCC 43300 (MRSA); test: as above; conditions: Staphylococcus aureus, 48 h
C. difficile ATCC 9689 = test: Broth microdilution MIC, anaerobic; assay type: cell-based, Clostridium difficile; conditions: Clostridioides difficile, ATCC9689, 48h at 37°C, read-out: MIC regarding C. difficile ATCC 9689
E. faecium A 949 = test: Broth microdilution MIC, aerobic Gram-positive bacteria; conditions: Enterococcus faecium, A949, 48 h
E. faecalis H 7460 = test: as above; conditions: Enterococcus faecalis, H7460, 48 h
E. faecium ATCC 19434 = test: as above; conditions: Enterococcus faecium, ATCC19434, 48 h
E. faecium H 7965 = test: as above; conditions: Enterococcus faecium, H7965, 48 h
E. faecium L1 (LZD-R) = test: as above; conditions: Enterococcus faecium, 48 h
E. faecalis H 4060 = test: as above; conditions: Enterococcus faecalis, H4060, 48 h
E. faecium H 9070 = test: as above; conditions: Enterococcus faecium, H9070, 48 h
E. faecium H 7966 = test: as above; conditions: Enterococcus faecium, H7966, 48 h
S. aureus S1 (LZD-R) = test: as above; conditions: Staphylococcus aureus, 48 h
E. faecalis H 6279 = test: as above; conditions: Enterococcus faecalis, H6279, 48 h
E. faecium H 7937 = test: as above; conditions: Enterococcus faecium, H7937, 48 h
[3] = tested on: C. difficile A-1050 (ATCC 43596); test: Spore formation at sub-MIC concentrations; assay type: cell-based; conditions: 0.5x the MIC; 4 days anaerobic incubation at 37°C
[4] = tested on: C. difficile strain NC 13366; assay type: cell-based
[5] = tested on: C. difficile strain NC 13366; test: microbe, parasite or virus in culture; assay type: cell-based

Structure (SMILES): O=C(O)c1cn(C2CC2)c2nc(N3CCC(O)(COc4ccc(N5C[C@H](CO)OC5=O)cc4F)CC3)c(F)cc2c1=O [Example 2, 1-cyclopropyl-6-fluoro-7-{4-[2-fluoro-4-((R)-5-hydroxymethyl-2-oxo-oxazolidin-3-yl)phenoxymethyl]-4-hydroxy-piperidin-1-yl}-4-oxo-1,4-dihydro-[1,8]naphthyridine-3-carboxylic acid]
- MIC (C. difficile NC 13366): 0.03 µg/mL (≈ 0.0511 µM)
- MIC (C. perfringens DSM 756): ≤ 0.03 µg/mL
- MIC (C. difficile ATCC 43596): 0.06 µg/mL (≈ 0.102 µM)

Structure (SMILES): CC(=O)NC[C@H]1CN(c2ccc(N3CCOCC3)c(F)c2)C(=O)O1 [Linezolid]
- MIC (C. difficile NC 13366): 1 µg/mL (≈ 2.96 µM)
- MIC (E. faecium A 962): 4 µg/mL (≈ 11.9 µM)
- MIC (E. faecalis H 7094): 4 µg/mL (≈ 11.9 µM)
- MIC (E. faecalis H 6897): 4 µg/mL (≈ 11.9 µM)
- MIC (S. aureus A-798 (MRSA)): 2 µg/mL (≈ 5.93 µM)
- MIC (E. faecium H 7969): 4 µg/mL (≈ 11.9 µM)
- MIC (E. faecalis ATCC 29212): 2 µg/mL (≈ 5.93 µM)
- MIC90 ([1]; 209 clinical isolates of C. difficile, read-out: MIC90): 8 µg/mL (≈ 23.7 µM)
- MIC (S. aureus ATCC 29213): 2 µg/mL (≈ 5.93 µM)
- MIC [2]: 2 µg/mL (≈ 5.93 µM)
- MIC (C. difficile ATCC 9689): 2 µg/mL (≈ 5.93 µM)
- MIC (E. faecium A 949): 2 µg/mL (≈ 5.93 µM)
- MIC (E. faecalis H 7460): 16 µg/mL (≈ 47.4 µM)
- MIC (E. faecium ATCC 19434): 2 µg/mL (≈ 5.93 µM)
- MIC (E. faecium H 7965): 2 µg/mL (≈ 5.93 µM)
- MIC (E. faecium L1 (LZD-R)): > 32 µg/mL
- MIC (E. faecalis H 4060): 2 µg/mL (≈ 5.93 µM)
- MIC (C. perfringens DSM 756): 4 µg/mL (≈ 11.9 µM)
- MIC (E. faecium H 9070): 2 µg/mL (≈ 5.93 µM)
- MIC (E. faecium H 7966): 1 µg/mL (≈ 2.96 µM)
- MIC (S. aureus S1 (LZD-R)): > 32 µg/mL
- MIC (E. faecalis H 6279): 2 µg/mL (≈ 5.93 µM)
- MIC (E. faecium H 7937): 1 µg/mL (≈ 2.96 µM)
- MIC (C. difficile ATCC 43596): 8 µg/mL (≈ 23.7 µM)

Structure (SMILES): Cc1ncc([N+](=O)[O-])n1CCO [metronidazole]
- spores of total cell count [3]: > 90%
- de novo toxin A production ([4]; 1 and 8 µg/ml, supernatants at day 5, high density stationary phase cultures): did not inhibit toxin A production under these conditions or did so only weakly

Structure (SMILES): CN[C@H](CC(C)C)C(=O)N[C@H]1C(=O)N[C@@H](CC(N)=O)C(=O)N[C@H]2C(=O)N[C@H]3C(=O)N[C@H](C(=O)N[C@H](C(=O)O)c4cc(O)cc(O)c4-c4cc3ccc4O)[C@H](O)c3ccc(c(Cl)c3)Oc3cc2cc(c3O[C@@H]2O[C@H](CO)[C@@H](O)[C@H](O)[C@H]2O[C@H]2C[C@](C)(N)[C@H](O)[C@H](C)O2)Oc2ccc(cc2Cl)[C@H]1O [vancomycin]
- MIC (E. faecium A 962): > 32 µg/mL
- spores of total cell count [3]: > 90%
- MIC (E. faecalis H 7094): > 32 µg/mL
- MIC (E. faecalis H 6897): > 32 µg/mL
- MIC (S. aureus A-798 (MRSA)): 1 µg/mL (≈ 0.69 µM)
- MIC (E. faecium H 7969): > 32 µg/mL
- toxin B activities of the supernatants, reduction compared to the untreated control [5]: not reduced
- inhibition at 8 µg/mL ([5]; Clostridioides difficile, NC13366, CHO, 120 h, read-out: toxin B activities of the supernatants, reduction compared to the untreated control): 30%
- MIC (E. faecalis ATCC 29212): 1 µg/mL (≈ 0.69 µM)
- MIC90 [1]: 2 µg/mL (≈ 1.38 µM)
- MIC (S. aureus ATCC 29213): 1 µg/mL (≈ 0.69 µM)
- MIC [2]: 1 µg/mL (≈ 0.69 µM)
- MIC (E. faecium A 949): > 32 µg/mL
- MIC (E. faecalis H 7460): > 32 µg/mL
- MIC (E. faecium ATCC 19434): 1 µg/mL (≈ 0.69 µM)
- MIC (E. faecium H 7965): > 32 µg/mL
- MIC (E. faecium L1 (LZD-R)): 0.5 µg/mL (≈ 0.345 µM)
- MIC (E. faecalis H 4060): > 32 µg/mL
- de novo toxin A production [4]: did not inhibit toxin A production under these conditions or did so only weakly
- MIC (E. faecium H 9070): > 32 µg/mL
- MIC (E. faecium H 7966): > 32 µg/mL
- MIC (S. aureus S1 (LZD-R)): 1 µg/mL (≈ 0.69 µM)
- MIC (E. faecalis H 6279): > 32 µg/mL
- MIC (E. faecium H 7937): > 32 µg/mL
